Each block holds one compound with its values, some of them ahead of it.
Experiment: solvent given as SMILES

emission maximum (in ClCCl): 663 nm
SMILES: CC(C)[Si](C#Cc1c2cc3ccccc3cc2c(C#Cc2ccc(Br)cc2)c2cc3ccccc3cc12)(C(C)C)C(C)C

emission maximum (in ClCCl): 567 nm
SMILES: CCCCC1=C(CCCC)c2cccc3c2c(cc2nc4ccccc4nc23)O1

emission maximum (in ClCCl): 440 nm
SMILES: CCOC(=O)c1c(-c2cc3c(ccc4ccccc43)oc2=O)nn(-c2cccc(C)c2)c1C(=O)OCC

emission maximum (in C1CCOC1): 655 nm
SMILES: CSC1=C(C)C2=C(c3ccc(C)cc3)c3c(C)c(Cl)c(C)n3[B-](F)(F)[N+]2=C1C

emission maximum (in C1CCOC1): 421 nm
emission maximum (in CC#N): 409 nm
emission maximum (in CS(C)=O): 425 nm
emission maximum (in ClC(Cl)Cl): 400 nm
SMILES: O=c1oc2ccccc2cc1-c1ccc([N+](=O)[O-])cc1

emission maximum (in CC#N): 618 nm
emission maximum (in ClCCl): 645 nm
emission maximum (in O): 622 nm
SMILES: CN(C)c1ccc(/C=C/c2ccc3ccccc3[n+]2C)cc1

emission maximum (in CC#N): 533 nm
SMILES: Cc1cc2nc3c(=O)[nH]c(=O)nc-3n(C)c2cc1C

emission maximum (in CC#N): 552 nm
emission maximum (in CCO): 552 nm
emission maximum (in CN(C)C=O): 532 nm
emission maximum (in CO): 555 nm
emission maximum (in O): 554 nm
SMILES: CCNc1cc2oc3c/c(=[NH+]\CC)c(C)cc-3c(-c3ccccc3C(=O)OCC)c2cc1C

emission maximum (in C1CCOC1): 426 nm
emission maximum (in CO): 441 nm
SMILES: CCOC(=O)C1=CN(c2ccccc2)C=C(C(=O)OCC)C1

emission maximum (in CCO): 629 nm
emission maximum (in ClCCl): 623 nm
emission maximum (in O): 627 nm
SMILES: CC[N+](CC)=c1ccc2cc3oc4cc(N)ccc4c3oc-2c1

emission maximum (in CC#N): 513 nm
SMILES: C[C@]12SC(=O)C=C1c1nc(-c3ccccc3)[nH]c1C1=CC(=O)S[C@@]12C

emission maximum (in ClCCl): 359 nm
SMILES: C[Si]1(C)c2ccccc2-c2ccccc21

emission maximum (in O): 404 nm
SMILES: c1ccc2c[n+]3ccccc3cc2c1

emission maximum (in c1ccccc1): 408 nm
SMILES: CCOC(=O)CSc1nc2c(c(C#N)c1C#N)CCCCCC2

emission maximum (in CC#N): 539 nm
emission maximum (in CCCCCC): 542 nm
emission maximum (in CCOC(C)=O): 543 nm
emission maximum (in CO): 540 nm
emission maximum (in ClCCl): 543 nm
SMILES: COC1=[N+]2C(=C(c3ccccc3)c3ccc(OC)n3[B-]2(F)F)C=C1SC#N

emission maximum (in CCO): 466 nm
SMILES: CCOC(=O)c1cc(C(=O)OCC)c2cc(O)ccc2n1

emission maximum (in CC#N): 469 nm
SMILES: Cc1ccc2nc3[nH]c(=O)[nH]c(=O)c3nc2c1C

emission maximum (in C1CCOC1): 420 nm
SMILES: CC(=O)c1ccc(-c2cnc3nn4ccccc4c3c2)cc1

emission maximum (in O): 570 nm
SMILES: Cc1cc(=O)oc2cc(/[NH+]=C/C=C3/C=C(C(=O)O)NC(C(=O)O)C3)ccc12 (stereo not drawn)

emission maximum (in ClCCl): 631 nm
SMILES: CC1=CC(C)=[N+]2C1=Cc1c3ccccc3c(-c3[nH]c(C)cc3C)n1[B-]2(F)F

emission maximum (in CC#N): 372 nm
SMILES: C[n+]1ccc(/C=C/c2cc[n+](C)cc2)cc1

emission maximum (in CO): 527 nm
SMILES: C(=C\c1c[nH]cn1)/c1cc[n+]2ccc(/C=C/c3c[nH]cn3)cc2c1

emission maximum (in CCO): 550 nm
emission maximum (in ClCCl): 553 nm
emission maximum (in O): 564 nm
SMILES: O=Cc1ccc(-c2ccc(O)c(-c3nc4ccccc4s3)c2)o1

emission maximum (in CCO): 337 nm
emission maximum (in CO): 339 nm
emission maximum (in O): 342 nm
SMILES: Cc1cc(C)nc(N)n1

emission maximum (in ClC(Cl)Cl): 440 nm
SMILES: Cc1cccc(C2=Cc3ccc4ccccc4[n+]3[B-](F)(F)O2)c1

The remaining lines, values behind:

SMILES: CCN(CC)c1ccc2c(c1)oc(=O)c1c(-c3ccccc3C(=O)O)c3ccc(=[N+](CC)CC)cc-3oc12
emission maximum (in CCO): 637 nm
emission maximum (in ClC(Cl)Cl): 636 nm
emission maximum (in O): 646 nm

SMILES: CC1(C)c2ccccc2N(c2ccc(-c3nc4cc(C#N)c(C#N)cc4nc3-c3ccc(N4c5ccccc5C(C)(C)c5ccccc54)cc3)cc2)c2ccccc21
emission maximum (in Cc1ccccc1): 620 nm

SMILES: c1ccc(N(c2ccccc2)c2ccc(-n3ccc4cc(-c5ccc(C6(c7ccccc7)c7ccccc7-c7ccccc76)cc5)ccc43)cc2)cc1
emission maximum (in ClCCl): 379 nm

SMILES: CC(C)[Si](C#Cc1c2cc3ccccc3cc2c(C#Cc2ccc(C(F)(F)F)cc2)c2cc3ccccc3cc12)(C(C)C)C(C)C
emission maximum (in ClCCl): 667 nm

SMILES: COc1ccc2c(c1)c1cc(OC)ccc1n2-c1cc(Cl)c([C](c2c(Cl)cc(Cl)cc2Cl)c2c(Cl)cc(Cl)cc2Cl)c(Cl)c1
emission maximum (in C1CCCCC1): 728 nm

SMILES: CCCCC1(CCCC)c2cc(C#Cc3ccc(/C=C(\C)c4ccccc4)cc3)ccc2-c2ccc(C#Cc3ccc(/C=C(\C)c4ccccc4)cc3)cc21
emission maximum (in C1CCOC1): 403 nm

SMILES: c1ccc2c(c1)-c1ccccc1C21c2ccccc2-c2cnccc21
emission maximum (in CC1CCCO1): 318 nm

SMILES: CC1(CCCCC(=O)NCCCCCCO)C(/C=C/C=C/C=C2/N(CCCS(=O)(=O)[O-])c3ccc(S(=O)(=O)[O-])cc3C2(C)C)=[N+](CCCS(=O)(=O)[O-])c2ccc(S(=O)(=O)[O-])cc21 (stereo not drawn)
emission maximum (in O): 672 nm

SMILES: CC[N+]1(CC)CN2C(=N1)C(C(=O)O)=Cc1cc(OC)ccc12
emission maximum (in O): 491 nm

SMILES: CN(C)c1[se]c(-c2ccc(Cl)cc2)nc1-c1ccccc1
emission maximum (in ClC(Cl)Cl): 455 nm

SMILES: COc1ccc(C2=CC(c3ccc(OC)cc3)=[O+][B-](C(C)=O)(C(C)=O)O2)cc1
emission maximum (in CC#N): 435 nm
emission maximum (in ClC(Cl)(Cl)Cl): 420 nm

SMILES: N#Cc1ccc(N/N=C/c2ccc3ccccc3c2O)cc1
emission maximum (in CC#N): 446 nm
emission maximum (in CCCCCC): 415 nm
emission maximum (in CO): 482 nm
emission maximum (in CS(C)=O): 456 nm
emission maximum (in ClC(Cl)Cl): 425 nm

SMILES: CCN(CC)c1ccc([N+]2=Cc3ccc4c5c(ccc4c3O[B-]2(c2c(F)c(F)c(F)c(F)c2F)c2c(F)c(F)c(F)c(F)c2F)C=[N+](c2ccc(N(CC)CC)cc2)[B-](c2c(F)c(F)c(F)c(F)c2F)(c2c(F)c(F)c(F)c(F)c2F)O5)cc1
emission maximum (in C1CCOC1): 714 nm
emission maximum (in Cc1ccccc1): 644 nm
emission maximum (in ClCCl): 683 nm

SMILES: CCn1c(-c2ccc(-c3ccc(-c4ccc(-c5n(CC)c6ccccc6[n+]5CC)cc4)c(C)c3)cc2)[n+](CC)c2ccccc21
emission maximum (in O): 400 nm

SMILES: CCn1c(-c2ccc(OC)cc2)c(-c2ccc3ccccc3c2)c(-c2ccc3ccccc3c2)c1-c1ccc(OC)cc1
emission maximum (in CCOC(C)=O): 404 nm

SMILES: CCCCCCCCCCCCOc1ccc(C#Cc2ccc(C#Cc3ccc(OCCCCCCCCCCCC)c(OCCCCCCCCCCCC)c3)c3nc4c5ccccc5c5ccccc5c4nc23)cc1OCCCCCCCCCCCC
emission maximum (in C1CCOC1): 558 nm
emission maximum (in Cc1ccccc1): 541 nm
emission maximum (in ClCCl): 566 nm

SMILES: c1ccc(-n2nc(-c3ccc(N4c5ccccc5Sc5ccccc54)cc3)nc2-c2ccccn2)cc1
emission maximum (in ClCCl): 468 nm

SMILES: NS(=O)(=O)c1ccc(N2N=C(c3ccc(O)cc3)CC2c2ccccc2)cc1 (stereo not drawn)
emission maximum (in C1CCOC1): 418 nm
emission maximum (in C1COCCO1): 417 nm
emission maximum (in CC#N): 417 nm
emission maximum (in CC(C)O): 423 nm
emission maximum (in CCO): 428 nm
emission maximum (in CCOC(C)=O): 416 nm
emission maximum (in CN(C)C=O): 422 nm
emission maximum (in CO): 432 nm
emission maximum (in CS(C)=O): 424 nm
emission maximum (in O): 448 nm

SMILES: COC(=O)c1ccc(/C=C2\C=C(c3ccc(C#N)cc3)N(CC(C)C)C2=O)cc1
emission maximum (in C1COCCO1): 589 nm

SMILES: CC(=O)Nc1ccc(C2=C/C(=C\c3ccc([N+](=O)[O-])cc3)C(=O)O2)cc1
emission maximum (in C1COCCO1): 550 nm

SMILES: Cc1cc(C)c(B(c2cc3c4c(c(B(c5c(C)cc(C)cc5C)c5c(C)cc(C)cc5C)cc5c4c2CCC5)CCC3)c2c(C)cc(C)cc2C)c(C)c1
emission maximum (in C1CCOC1): 464.54 nm
emission maximum (in CC#N): 465.9 nm
emission maximum (in CCCCCC): 456 nm

SMILES: FC(F)(F)c1ccc(C2=Cc3ccccc3[Si]2(c2ccccc2)c2ccccc2)cc1
emission maximum (in ClCCl): 401 nm

SMILES: Clc1ccccc1N1c2sc3ccccc3c2Sc2c1sc1ccccc21
emission maximum (in ClCCl): 541 nm

SMILES: Cc1cc(C)c(-c2c3ccccc3c3ccc4cc5c(-c6c(C)cc(C)cc6C)c6ccccc6c6ccc7cc2c3c4c7c56)c(C)c1
emission maximum (in ClCCl): 617 nm

SMILES: CCCCN1/C(=C/C=C/C2=[N+](C)c3ccccc3C2(C)C)Oc2ccccc21
emission maximum (in CS(C)=O): 537 nm

SMILES: CN(C)c1ccc(/C=C/c2cc(/C=C/c3ccc(N(C)C)cc3)nc(/C=C/c3ccc(N(c4ccccc4)c4ccccc4)cc3)n2)cc1
emission maximum (in C1CCOC1): 521 nm
emission maximum (in CC#N): 584 nm
emission maximum (in CC(C)=O): 561 nm
emission maximum (in CCCCCCC): 451 nm
emission maximum (in CS(C)=O): 596 nm
emission maximum (in Cc1ccccc1): 480 nm
emission maximum (in ClCCl): 533 nm

SMILES: CC(C)(C)c1ccc2c(c1)Sc1cc(C(C)(C)C)ccc1N2c1ccc2c(ccc3nc4ccc5cc(N6c7ccc(C(C)(C)C)cc7Sc7cc(C(C)(C)C)ccc76)ccc5c4nc32)c1
emission maximum (in C1CCCCC1): 575 nm
emission maximum (in Cc1ccccc1): 682 nm

SMILES: c1ccc(-c2cc3cccc4cc(-c5ccccc5)c5cc(-c6cc7[b-]8c(c6)c(-c6ccccc6)cc6cccc(cc7-c7ccccc7)[n+]86)cc2[b-]5[n+]34)cc1
emission maximum (in C1CCCCC1): 521 nm

SMILES: CCN(CC)c1ccc(-c2nc(Oc3ccc(-c4nc5ccccc5s4)cc3)nc(Oc3ccc(-c4nc5ccccc5s4)cc3)n2)cc1
emission maximum (in CN(C)C=O): 419 nm

SMILES: CCCCn1c2ccccc2c2ccc3c4cc(-c5ccc6ccccc6c5)ccc4n(CCCC)c3c21
emission maximum (in ClC(Cl)Cl): 410 nm

SMILES: CCCCCCN(CCCCCC)c1ccc(C#Cc2ccc(C#Cc3ccc(-c4ccc(C#Cc5ccc(C#Cc6ccc(N(CCCCCC)CCCCCC)cc6)cc5)cc4)cc3)cc2)cc1
emission maximum (in Cc1ccccc1): 433 nm

SMILES: CC(=O)n1cc(/C=C/c2ccc([N+](=O)[O-])cc2)c2ccccc21
emission maximum (in CC#N): 428 nm
emission maximum (in CCCCCCC): 408 nm
emission maximum (in CO): 424 nm
emission maximum (in O): 537 nm

SMILES: O=[N+]([O-])c1ccc(-c2cn3ccc[n+]3[n-]2)cc1
emission maximum (in ClCCl): 556 nm

SMILES: CCCCN1C(=O)c2ccc3c4ccc5c6c(ccc(c7ccc(c2c37)C1=O)c64)C(=O)N(CCCC)C5=O
emission maximum (in ClC(Cl)Cl): 533 nm

SMILES: N#CC(C#N)=Cc1ccc2c(c1)[nH]c1c3ccccc3sc21
emission maximum (in C1CCOC1): 547 nm
emission maximum (in CN(C)C=O): 581 nm
emission maximum (in Cc1ccccc1): 518 nm
emission maximum (in ClCCl): 544 nm

SMILES: N#Cc1c(N2CCCCC2)cc(-c2ccc(-c3ccccc3)s2)c2c1CCc1ccccc1-2
emission maximum (in C1CCOC1): 515 nm

SMILES: CC(C)(C)c1cc2c3cc(C(C)(C)C)c(-c4cc5cc6c7cccc8cccc(c9cc(C(C)(C)C)cc(c5cc4C(C)(C)C)c96)c87)cc3cc3c4cccc5cccc(c(c1)c23)c54
emission maximum (in CC1CCCCC1): 454 nm

SMILES: c1ccc(/C(=C(\c2ccccc2)c2cc(-c3ccccc3)ccc2-c2ccccc2)c2cc(-c3ccccc3)ccc2-c2ccccc2)cc1
emission maximum (in C1CCOC1): 489 nm

Reference: the Deep4Chem optical property database
